According to PMC6333442, “Conserved allosteric pathways for activation of TRPV3 revealed through engineering vanilloid-sensitivity” (eLife, 2019):

What was measured:
[1] = system: TRPV3-6M/V2P (pore domain of rat TRPV2 in TRPV3-6M); assay: Two-electrode voltage clamp, TRPV3-6M/V2P chimera in oocytes; assay type: cell-based, mouse; settings: RTx 100 nM
Method: (§1) All channel constructs were expressed in Xenopus laevis oocytes and studied using the two-electrode voltage clamp technique (TEVC) following 1–4 days of incubation after cRNA injection. The animal care and experimental procedures were performed in accordance with the Guide for the Care and Use of Laboratory Animals and were approved by the Animal Care and Use Committee of the National Institute of Neurological Disorders and Stroke (Animal protocol number 1253–17). Oocytes were removed surgically and incubated with agitation for 1 hr in a solution containing (in mM) 82.5 NaCl, 2.5 KCl, 1 MgCl2, 5 HEPES, pH 7.6 (with NaOH), and collagenase (2 mg/ml; Worthington Biochemical, Lakewood, NJ). Defolliculated oocytes were injected with cRNA for each of the constructs and incubated at 17°C in a solution containing (in mM) 96 NaCl, 2 KCl, 1 MgCl2, 1.8 CaCl2, 5 HEPES, pH 7.6 (with NaOH), and gentamicin (50 μg/ml, GIBCO-BRL, Gaithersburg, MD). Oocyte membrane voltage was controlled using an OC-725C oocyte clamp (Warner Instruments, Hamden, CT). Data were filtered at 1–3 kHz and digitized at 20 kHz using pClamp software (Molecular Devices, Sunnyvale, CA) and a Digidata 1440A digitizer (Axon Instruments). Microelectrode resistances were 0.1–1 MΩ when filled with 3 M KCl. For recording TRP channel currents, the external recording solution contained (in mM) 100 KCl, 10 HEPES, pH 7.6 (with KOH). […]
For temperature-activation experiments, calcium-activated chloride currents were minimized by using calcium-free solution containing 30 µM Caccinh-A01 and recording at negative membrane voltages. Heat stimuli were achieved by passing the external recording solution through glass capillary spirals immersed in a water bath maintained at about 70°C, and recordings were performed during constant perfusion with temperature measured using a thermistor (TA-29, Warner Instruments) located close to the cell. […] The mean I vs T relations were calculated by automatically binning each of the recordings in temperature intervals of 2°C, and averaging a single data point within each interval per cell. […]

TRPV3-6M + V587L = target: T1, TRPV3-6M + V587L (Mus musculus, UniProt Q8K424, A560T/F522S/H523E/L557M/Q580E/V587L/W521Y); assay: Two-electrode voltage clamp, TRPV3-6M + V587L, RTx concentrations; assay type: cell-based
T1 construct: expressed in transfected cells; host or cells: Xenopus laevis oocytes
T1 sequence (Q8K424 1-791 W521Y/F522S/H523E/L557M/A560T/Q580E/V587L): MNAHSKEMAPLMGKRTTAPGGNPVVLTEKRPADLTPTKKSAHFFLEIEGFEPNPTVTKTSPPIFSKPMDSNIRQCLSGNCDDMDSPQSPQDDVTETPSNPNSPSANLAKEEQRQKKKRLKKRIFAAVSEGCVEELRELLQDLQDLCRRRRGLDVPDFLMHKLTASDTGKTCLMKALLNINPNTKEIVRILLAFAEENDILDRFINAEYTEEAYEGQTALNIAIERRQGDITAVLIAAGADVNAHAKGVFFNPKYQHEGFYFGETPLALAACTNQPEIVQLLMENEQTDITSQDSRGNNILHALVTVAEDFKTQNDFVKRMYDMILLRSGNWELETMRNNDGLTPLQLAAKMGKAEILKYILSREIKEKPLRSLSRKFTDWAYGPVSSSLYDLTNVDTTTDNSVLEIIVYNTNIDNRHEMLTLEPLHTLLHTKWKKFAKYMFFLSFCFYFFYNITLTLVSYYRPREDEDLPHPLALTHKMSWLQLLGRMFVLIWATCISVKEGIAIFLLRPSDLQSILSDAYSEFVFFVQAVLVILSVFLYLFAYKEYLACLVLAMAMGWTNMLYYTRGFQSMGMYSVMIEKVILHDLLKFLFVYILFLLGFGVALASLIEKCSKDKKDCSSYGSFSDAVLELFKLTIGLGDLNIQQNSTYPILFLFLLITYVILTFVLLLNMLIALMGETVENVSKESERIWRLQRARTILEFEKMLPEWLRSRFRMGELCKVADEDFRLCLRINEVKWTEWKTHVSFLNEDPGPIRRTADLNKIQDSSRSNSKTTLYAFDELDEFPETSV
Method: as §1

**Q.** `C=C(C)[C@]12C[C@@H](C)[C@@]34O[C@](Cc5ccccc5)(O[C@@H]1[C@@H]3C=C(COC(=O)Cc1ccc(O)c(OC)c1)C[C@]1(O)C(=O)C(C)=C[C@@H]41)O2` [RTx, resiniferatoxin] was tested. Which “channel activation (current response)” value ([1]; room temperature, ±60 mV) did it give?
**A.** robustly activated

**Q.** And the “RTx activation on cooling” value ([1]; temperature decreased to 10°C)?
**A.** reduced to baseline levels

**Q.** And the “dissociation of RTx” value (TRPV3-6M + V587L)?
**A.** exceedingly slow
